Data: patent US20030087906A1, “NITROGEN SUBSTITUTED BIARYL PURINE DERIVATIVES AS POTENT ANTIPROLIFERATIVE AGENTS” (priority 2001, published 2003)
Values joined by “and” are separate entries in the source; they are usually repeats but may differ in a detail not shown here. Equal entries are not always repeated.

Experiments:
CyclinA/cdk2 = CyclinA/cdk2 (Homo sapiens, UniProt P24941); assay: CyclinA/cdk2 protein kinase assay (histone H1 phosphorylation); details: IC50 CyclinA/cdk2, complex immunopurified from HeLa cells; 15 μM ATP; replicate experiments
CyclinE/cdk2 = CyclinE/cdk2 (Homo sapiens, UniProt P24941); assay: CyclinE/cdk2 protein kinase assay (histone H1 phosphorylation); details: IC50 CyclinE/cdk2, complex immunopurified from HeLa cells; 15 μM ATP; replicate experiments
HeLa S-3 cells = assay: Inhibition of cell growth of HeLa cells (SRB); assay type: cell-based, human; details: 2 days of treatment, replicate experiments
Method: Growth inhibition (GI50) values were measured with HeLa S-3 cells selected for growth on plastic. […] One day later, a control plate was fixed by addition of TCA to 5%. After five rinses with tap water the plate was air dried and stored at 4° C. Test compounds were added to the remaining plates at 10-fold dilutions between 0.01 and 100 μM. Two days later all plates were fixed as described above. Cells were then stained by the addition of 100 μl per well of 0.4% sulforhodamine B (SRB) in 1% acetic acid for 30 min at 4° C. Wells were then quickly rinsed 5×with acetic acid (1%) and allowed to air dry. The SRB was then solubilized by the addition of 100 μl per well of unbuffered 10 mM Tris base. Dye was quantified by measuring absorbance at 490 nm on a Molecular Devices kinetic microplate reader. Growth at each inhibitor concentration relative to the untreated control was calculated according to the following equation: percent growth=100×(T−To)/(C−To), where T was the average optical density (OD) of the test wells after 2 days of treatment, To was the average OD of the wells in the control plate on day 0 and C was the average OD of untreated wells. Plots of percent growth versus inhibitor concentration were used to determine the GI50.

[1] = tested on: Tumor Cells in Hollow Fibers; assay: NCI Hollow Fiber Assay (in vivo evaluation); details: for IP Score: IP fibers; for SC score: SC fibers

Structure (SMILES)	IC50 (CyclinA/cdk2)	IC50 (CyclinE/cdk2)	GI50 (HeLa S-3 cells; Homo sapiens, HeLa S3, 48 h)	GI50 (HeLa S-3 cells)	other results
CC(C)n1cnc2c(NCc3ccc(I)cc3)nc(N[C@H]3CC[C@H](N)CC3)nc21 [Compound 11]	200 nM	70 nM	–	–	–
CC[C@H](CO)Nc1nc(NCc2ccc(-c3ccc(C(O)CO)cc3)cc2)c2ncn(C(C)C)c2n1 (stereo partly shown) [Compound 34]	–	–	7000 nM	–	–
CC[C@H](CO)Nc1nc(NCc2ccc(-c3cccc(N)c3)cc2)c2ncn(C(C)C)c2n1 [Compound 36]	–	–	20000 nM	–	–
CC(=O)N[C@H]1CC[C@H](Nc2nc(NCc3ccc(-c4ccc(C)cc4)cc3)c3ncn(C(C)C)c3n2)CC1 [Compound 97]	> 10000 nM	3000 nM	3000 nM	–	–
CC(=O)N[C@H]1CC[C@H](Nc2nc(NCc3ccc(-c4ccc(F)cc4)cc3)c3ncn(C(C)C)c3n2)CC1 [Compound 102]	> 10000 nM	4000 nM	–	–	–
CC(C)n1cnc2c(NCc3ccc(-c4ccccc4)cc3)nc(NC[C@H](C)N)nc21 [Compound 107]	1000 nM and 4000 nM	2000 nM	–	–	–
CC(=O)N[C@@H](C)CNc1nc(NCc2ccc(-c3ccccc3)cc2)c2ncn(C(C)C)c2n1 [Compound 108]	> 10000 nM	> 10000 nM	3000 nM	–	–
CC(C)n1cnc2c(NCc3ccc(-c4cccc(Cl)c4)cc3)nc(N[C@H]3CC[C@H](N)CC3)nc21 [Compound 109]	600 nM	100 nM	–	–	–
CC(=O)N[C@H]1CC[C@H](Nc2nc(NCc3ccc(-c4cccc(Cl)c4)cc3)c3ncn(C(C)C)c3n2)CC1 [Compound 110]	600 nM	2000 nM	–	20 nM	Cell Types Killed [1]: OVCAR-3; IP Score [1]: 14; SC score [1]: 0
CC(=O)N[C@H]1CC[C@H](Nc2nc(NCc3ccc(-c4cccs4)cc3)c3ncn(C(C)C)c3n2)CC1 [Compound 112]	2000 nM	2000 nM	–	–	Cell Types Killed [1]: OVCAR-3; IP Score [1]: 18; SC score [1]: 2
CC(=O)N[C@H]1CC[C@H](Nc2nc(NCc3ccc(-c4ccsc4)nc3)c3ncn(C(C)C)c3n2)CC1 [Compound 124]	2000 nM	800 nM	–	–	Cell Types Killed [1]: OVCAR-3; IP Score [1]: 28; SC score [1]: 0

The next lines start with results.

IC50 (CyclinA/cdk2)	IC50 (CyclinE/cdk2)	GI50 (HeLa S-3 cells; Homo sapiens, HeLa S3, 48 h)	GI50 (HeLa S-3 cells)	Structure (SMILES)	other results
–	–	–	> 10000 nM	CC(C)n1cnc2c(NCc3cccc(-c4ccsc4)c3)nc(N[C@H]3CC[C@H](NC(=O)OC(C)(C)C)CC3)nc21 [Compound 130]	–
–	–	–	> 10000 nM	CC(C)n1cnc2c(NCc3cccc(-c4ccccc4)c3)nc(N[C@H]3CC[C@H](NC(=O)OC(C)(C)C)CC3)nc21 [Compound 133]	–
–	–	800 nM	600 nM	CCCN[C@H]1CC[C@H](Nc2nc(NCc3ccc(-c4cc(C)cc(C)c4)cc3)c3ncn(C(C)C)c3n2)CC1 [Compound 151]	–
–	–	–	700 nM and 300 nM	CCCN(CCC)[C@H]1CC[C@H](Nc2nc(NCc3ccc(-c4cc(C)cc(C)c4)cc3)c3ncn(C(C)C)c3n2)CC1 [Compound 152]	–
–	–	500 nM	800 nM	CCCN[C@H]1CC[C@H](Nc2nc(NCc3ccc(-c4cc(OC)ccc4OC)cc3)c3ncn(C(C)C)c3n2)CC1 [Compound 155]	–
–	–	500 nM	–	Cc1ccc(-c2ccc(CNc3nc(N[C@H]4CC[C@H](N)CC4)nc4c3ncn4C(C)C)cc2)s1 [Compound 157]	–
–	–	–	600 nM	CC(=O)N[C@H]1CC[C@H](Nc2nc(NCc3ccc(-c4ccc(C)s4)cc3)c3ncn(C(C)C)c3n2)CC1 [Compound 158]	–
–	–	200 nM	–	Cc1csc(-c2ccc(CNc3nc(N[C@H]4CC[C@H](N)CC4)nc4c3ncn4C(C)C)cc2)c1 [Compound 160]	–
–	–	–	200 nM	CC(=O)N[C@H]1CC[C@H](Nc2nc(NCc3ccc(-c4cc(C)cs4)cc3)c3ncn(C(C)C)c3n2)CC1 [Compound 161]	–
–	–	200 nM	–	CCCN[C@H]1CC[C@H](Nc2nc(NCc3ccc(-c4cc(C)cs4)cc3)c3ncn(C(C)C)c3n2)CC1 [Compound 162]	–
–	–	200 nM	–	CC(C)n1cnc2c(NCc3ccc(-c4ccoc4)cc3)nc(N[C@H]3CC[C@H](N)CC3)nc21 [Compound 164]	–
–	–	–	200 nM and 100 nM	CC(=O)N[C@H]1CC[C@H](Nc2nc(NCc3ccc(-c4ccoc4)cc3)c3ncn(C(C)C)c3n2)CC1 [Compound 165]	–
–	–	–	200 nM	CC(=O)N[C@H]1CC[C@H](Nc2nc(NCc3ccc(-c4cccc(C)c4)cc3)c3ncn(C(C)C)c3n2)CC1 [Compound 178]	–
–	–	–	300 nM	COc1cccc(-c2ccc(CNc3nc(N[C@H]4CC[C@H](NC(C)=O)CC4)nc4c3ncn4C(C)C)cc2)c1 [Compound 180]	–
–	–	40 nM	–	CC(C)n1cnc2c(NCc3ccc(-c4ccco4)cc3)nc(N[C@H]3CC[C@H](N)CC3)nc21 [Compound 181]	–
